# Laboratory results reported in publication PMC12736255, “Reinvestigating Pyrrol-2-One-Based Compounds: From Antimicrobial Agents to Promising Antitumor Candidates” (Pharmaceuticals, 2025).
# Experiments:
# Assay in all cases: NCI-60 single-dose screen
# [1] = tested on: NCI-H226; format: cell-based, human; settings: Homo sapiens; NCI-H226, 10^–5 M; read-out: GI (%)
# Excerpt: (§1) In the next step, all synthesized compounds were electronically submitted and accepted for testing to the National Cancer Institute (NCI) platform, for the single dose (10^−5 M) screening against a panel of 60 human tumor cell lines, representing leukemia, melanoma, and cancers of the lung, colon, central nervous system, ovary, kidney, prostate, and breast. The results are summarized in Table 2, with the best values highlighted in red (Figures S1–S14).
# [2] = tested on: EKVX; format: cell-based, human; settings: Homo sapiens, 10^–5 M, read-out: GI (%)
# Excerpt: as §1
# [3] = tested on: M14; format: cell-based; settings: Homo sapiens; M14, 10^–5 M; read-out: GI (%)
# Excerpt: as §1
# [4] = tested on: SF-539; format: cell-based; settings: Homo sapiens; SF-539, 10^–5 M; read-out: GI (%)
# Excerpt: as §1
# [5] = tested on: CAKI-1; format: cell-based; settings: Homo sapiens; CAKI-1, 10^–5 M; read-out: GI (%)
# Excerpt: as §1
# [6] = tested on: SK-MEL-5; format: cell-based; settings: Homo sapiens; SK-MEL-5, 10^–5 M; read-out: GI (%)
# Excerpt: as §1
# [7] = tested on: RPMI-8226; format: cell-based; settings: Homo sapiens; RPMI-8226, 10^–5 M; read-out: GI (%)
# Excerpt: as §1
# [8] = tested on: HS 578T; format: cell-based; settings: Homo sapiens, 10^–5 M, read-out: GI (%)
# Excerpt: as §1
# [9] = tested on: NCI-H522; format: cell-based; settings: Homo sapiens; NCI-H522, 10^–5 M; read-out: GI (%)
# Excerpt: as §1
# [10] = tested on: KM12; format: cell-based; settings: Homo sapiens; KM12, 10^–5 M; read-out: GI (%)
# Excerpt: as §1
# [11] = tested on: A498; format: cell-based; settings: Homo sapiens; A498, 10^–5 M; read-out: GI (%)
# Excerpt: as §1
# [12] = tested on: MOLT-4; format: cell-based; settings: Homo sapiens; MOLT-4, 10^–5 M; read-out: GI (%)
# Excerpt: as §1
# [13] = tested on: MDA-MB-231/ATCC; format: cell-based; settings: Homo sapiens, 10^–5 M, read-out: GI (%)
# Excerpt: as §1
# [14] = tested on: OVCAR-8; format: cell-based; settings: Homo sapiens; OVCAR-8, 10^–5 M; read-out: GI (%)
# Excerpt: as §1
# [15] = tested on: MCF7; format: cell-based; settings: Homo sapiens; MCF7, 10^–5 M; read-out: GI (%)
# Excerpt: as §1
# [16] = tested on: HOP-92; format: cell-based; settings: Homo sapiens; HOP-92, 10^–5 M; read-out: GI (%)
# Excerpt: as §1
# [17] = tested on: SK-MEL-2; format: cell-based; settings: Homo sapiens; SK-MEL-2, 10^–5 M; read-out: GI (%)
# Excerpt: as §1
# [18] = tested on: T-47D; format: cell-based; settings: Homo sapiens, T47D, 10^–5 M, read-out: GI (%)
# Excerpt: as §1
# [19] = tested on: LOX IMVI; format: cell-based; settings: Homo sapiens, 10^–5 M, read-out: GI (%)
# Excerpt: as §1
# [20] = tested on: SK-OV-3; format: cell-based; settings: Homo sapiens; SK-OV-3, 10^–5 M; read-out: GI (%)
# Excerpt: as §1
# [21] = tested on: SNB-19; format: cell-based; settings: Homo sapiens; SNB-19, 10^–5 M; read-out: GI (%)
# Excerpt: as §1
# [22] = tested on: MDA-MB-435; format: cell-based; settings: Homo sapiens; MDA-MB-435, 10^–5 M; read-out: GI (%)
# Excerpt: as §1
# [23] = tested on: SN12C; format: cell-based; settings: Homo sapiens, 10^–5 M, read-out: GI (%)
# Excerpt: as §1
# [24] = tested on: NCI/ADR-RES; format: cell-based; settings: Homo sapiens, 10^–5 M, read-out: GI (%)
# Excerpt: as §1
# [25] = tested on: HCT-116; format: cell-based; settings: Homo sapiens; HCT-116, 10^–5 M; read-out: GI (%)
# Excerpt: as §1
# [26] = tested on: SNB-75; format: cell-based; settings: Homo sapiens; SNB-75, 10^–5 M; read-out: GI (%)
# Excerpt: as §1
# [27] = tested on: COLO205; format: cell-based; settings: Homo sapiens, COLO 205; COLO205, 10^–5 M; read-out: GI (%)
# Excerpt: as §1
# [28] = tested on: NCI-H322M; format: cell-based; settings: Homo sapiens, 10^–5 M, read-out: GI (%)
# Excerpt: as §1
# [29] = tested on: 786-0; format: cell-based; settings: Homo sapiens; 786-0, 10^–5 M; read-out: GI (%)
# Excerpt: as §1
# [30] = tested on: HL-60(TB); format: cell-based; settings: Homo sapiens, 10^–5 M, read-out: GI (%)
# Excerpt: as §1
# [31] = tested on: SW-620; format: cell-based; settings: Homo sapiens; SW-620, 10^–5 M; read-out: GI (%)
# Excerpt: as §1
# [32] = tested on: SF-268; format: cell-based; settings: Homo sapiens; SF-268, 10^–5 M; read-out: GI (%)
# Excerpt: as §1
# [33] = tested on: HT-29; format: cell-based; settings: Homo sapiens; HT-29, 10^–5 M; read-out: GI (%)
# Excerpt: as §1
# [34] = tested on: NCI-H23; format: cell-based; settings: Homo sapiens; NCI-H23, 10^–5 M; read-out: GI (%)
# Excerpt: as §1
# [35] = tested on: OVCAR-3; format: cell-based; settings: Homo sapiens; OVCAR-3, 10^–5 M; read-out: GI (%)
# Excerpt: as §1
# [36] = tested on: HCT-15; format: cell-based; settings: Homo sapiens; HCT-15, 10^–5 M; read-out: GI (%)
# Excerpt: as §1
# [37] = tested on: UACC-257; format: cell-based; settings: Homo sapiens; UACC-257, 10^–5 M; read-out: GI (%)
# Excerpt: as §1
smiles,measurement,setting,value
O=C1C(Nc2ccc(I)cc2)=CC(c2ccc(F)cc2)N1c1ccc(I)cc1 (stereo not drawn) [3b],inhibition at 10 µM,[1],4%
same,inhibition at 10 µM,[2],24%
same,inhibition at 10 µM,[3],4%
same,inhibition at 10 µM,[4],51%
same,inhibition at 10 µM,[5],13%
same,inhibition at 10 µM,[6],5%
same,inhibition at 10 µM,[7],35%
same,inhibition at 10 µM,[8],90%
same,inhibition at 10 µM,[9],26%
same,inhibition at 10 µM,[10],26%
same,inhibition at 10 µM,[11],21%
same,inhibition at 10 µM,[12],66%
same,inhibition at 10 µM,[13],6%
same,inhibition at 10 µM,[14],8%
same,inhibition at 10 µM,[15],56%
same,inhibition at 10 µM,[16],36%
same,inhibition at 10 µM,[17],31%
same,inhibition at 10 µM,[18],32%
same,inhibition at 10 µM,[19],0%
same,inhibition at 10 µM,[20],12%
same,inhibition at 10 µM,[21],8%
same,inhibition at 10 µM,[22],0%
same,inhibition at 10 µM,[23],28%
same,inhibition at 10 µM,[24],9%
same,inhibition at 10 µM,[25],21%
same,inhibition at 10 µM,[26],100%
same,inhibition at 10 µM,[27],27%
same,inhibition at 10 µM,[28],10%
same,inhibition at 10 µM,[29],27%
same,inhibition at 10 µM,[30],35%
same,inhibition at 10 µM,[31],24%
same,inhibition at 10 µM,[32],68%
same,inhibition at 10 µM,[33],16%
same,inhibition at 10 µM,[34],8%
same,inhibition at 10 µM,[35],9%
same,inhibition at 10 µM,[36],9%
same,inhibition at 10 µM,[37],8%
O=C1C(Nc2ccc(I)cc2)=CC(c2ccc(Cl)cc2)N1c1ccc(I)cc1 (stereo not drawn) [3c],inhibition at 10 µM,[1],62%
same,inhibition at 10 µM,[2],37%
same,inhibition at 10 µM,[3],0%
same,inhibition at 10 µM,[4],11%
same,inhibition at 10 µM,[5],19%
same,inhibition at 10 µM,[6],18%
same,inhibition at 10 µM,[7],30%
same,inhibition at 10 µM,[8],55%
same,inhibition at 10 µM,[9],24%
same,inhibition at 10 µM,[10],17%
same,inhibition at 10 µM,[11],19%
same,inhibition at 10 µM,[12],29%
same,inhibition at 10 µM,[13],5%
same,inhibition at 10 µM,[14],11%
same,inhibition at 10 µM,[15],47%
same,inhibition at 10 µM,[16],27%
same,inhibition at 10 µM,[17],43%
same,inhibition at 10 µM,[18],48%
same,inhibition at 10 µM,[19],11%
same,inhibition at 10 µM,[20],13%
same,inhibition at 10 µM,[21],7%
same,inhibition at 10 µM,[22],0%
same,inhibition at 10 µM,[23],25%
same,inhibition at 10 µM,[24],1%
same,inhibition at 10 µM,[25],25%
same,inhibition at 10 µM,[26],12%
same,inhibition at 10 µM,[27],0%
same,inhibition at 10 µM,[28],0%
same,inhibition at 10 µM,[29],18%
same,inhibition at 10 µM,[30],0%
same,inhibition at 10 µM,[31],12%
same,inhibition at 10 µM,[32],24%
same,inhibition at 10 µM,[33],19%
same,inhibition at 10 µM,[34],13%
same,inhibition at 10 µM,[35],9%
same,inhibition at 10 µM,[36],13%
same,inhibition at 10 µM,[37],23%
O=C1C(Nc2ccc(I)cc2)=CC(c2ccc(Br)cc2)N1c1ccc(I)cc1 (stereo not drawn) [3d],inhibition at 10 µM,[1],17%
same,inhibition at 10 µM,[2],36%
same,inhibition at 10 µM,[3],0%
same,inhibition at 10 µM,[4],0%
same,inhibition at 10 µM,[5],12%
same,inhibition at 10 µM,[6],20%
same,inhibition at 10 µM,[7],34%
same,inhibition at 10 µM,[8],41%
same,inhibition at 10 µM,[9],2%
same,inhibition at 10 µM,[10],17%
same,inhibition at 10 µM,[11],5%
same,inhibition at 10 µM,[12],20%
same,inhibition at 10 µM,[13],0%
same,inhibition at 10 µM,[14],0%
same,inhibition at 10 µM,[15],60%
same,inhibition at 10 µM,[16],0%
same,inhibition at 10 µM,[17],16%
same,inhibition at 10 µM,[18],49%
same,inhibition at 10 µM,[19],1%
same,inhibition at 10 µM,[20],0%
same,inhibition at 10 µM,[21],6%
same,inhibition at 10 µM,[22],0%
same,inhibition at 10 µM,[23],15%
same,inhibition at 10 µM,[24],0%
same,inhibition at 10 µM,[25],19%
same,inhibition at 10 µM,[26],3%
same,inhibition at 10 µM,[27],0%
same,inhibition at 10 µM,[28],0%
same,inhibition at 10 µM,[29],6%
same,inhibition at 10 µM,[30],0%
same,inhibition at 10 µM,[31],16%
same,inhibition at 10 µM,[32],15%
same,inhibition at 10 µM,[33],14%
same,inhibition at 10 µM,[34],3%
same,inhibition at 10 µM,[35],5%
same,inhibition at 10 µM,[36],13%
same,inhibition at 10 µM,[37],3%
